# From patent US20090068290A1, “BIFEPRUNOX DOSES FOR TREATING SCHIZOPHRENIA” (priority 2006, published 2009)
# What was measured:
# Format in all cases: in vivo, human
# [1] = test system: adult subjects with schizophrenia; assay: PANSS general psychopathology subscale score, Clinical Study One; settings: for Change from Baseline in PANSS General Psychopathology Subscale Score, Mean (S.D.) / Change from Baseline in PANSS General Psychopathology Subscale Score, Median / Trt Effect (versus placebo), PANSS General Psychopathology Subscale Score: ITT population; for Trt Effect (versus placebo), PANSS General Psychopathology Subscale Score: ANCOVA
# Protocol: (§1) There were five treatment groups in this study. […] Study medication was administered once daily. After Baseline measurements were performed, the titration phase was begun. Bifeprunox treated subjects were titrated up to 5 mg, 10 mg or 20 mg according to a standardized titration schedule (Day 1: 0.125 mg, Day 2: 0.25 mg, Day 3: 0.5 mg, Day 4: 1.0 mg, Day 5: 2.0 mg, Day 6: 5.0 mg, Day 7: 10.0 mg, Day 8: 20 mg). When the assigned dose was reached, subjects were maintained at that dose for the remainder of the six-week treatment period.
# (§2) The change in the Positive and Negative Symptom Scale (PANSS) total score, from baseline to endpoint, was the primary outcome measure. Secondary efficacy measures included: PANSS positive, PANSS negative, PANSS general psychopathology (GPP) score, PANSS-derived Brief Psychiatric Rating Scale (BPRS) score, Clinical Global Impressions-Severity of Illness (CGI-S), CGI-Improvement (CGI-I) scores, and responder rates. Safety and tolerability evaluations included extrapyramidal symptoms (EPS), weight gain, lipid profile, and serum prolactin.
# [2] = test system: adult subjects with schizophrenia; assay: BPRS psychosis cluster score, Clinical Study One; settings: for Change from Baseline in BPRS Psychosis Cluster Score, Mean (S.D.) / Change from Baseline in BPRS Psychosis Cluster Score, Median / Change from Baseline in BPRS Psychosis Cluster Score, Trt Effect (bifeprunox—placebo) / Change from Baseline in BPRS Psychosis Cluster Score, Mean S.D.: ITT population
# Protocol: as §1
# [3] = test system: adult subjects with schizophrenia; assay: CGI Severity of Illness score, Clinical Study One; parameters: Change from Baseline in CGI Severity of Illness Score, Median: scale not given here
# Protocol: as §1, §2
# [4] = Bifeprunox 10 mg, Endpoint LOCF
# [5] = Bifeprunox 20 mg, Endpoint LOCF
# [6] = Bifeprunox 5 mg, Endpoint LOCF, ITT population
# [7] = Bifeprunox 5 mg, Week 1, LOCF, ITT population
# [8] = Bifeprunox 5 mg, Week 2, LOCF, ITT population
# [9] = Bifeprunox 5 mg, Week 3, LOCF, ITT population
# [10] = Bifeprunox 5 mg, Week 4, LOCF, ITT population
structure (smiles),measurement,setting,value
"O=c1[nH]c2cccc(N3CCN(Cc4cccc(-c5ccccc5)c4)CC3)c2o1 [Bifeprunox, 7-[4-([1,1′-biphenyl]-3-ylmethyl)-1-piperazinyl]-2(3H)-benzoxazolone]","Change from Baseline in PANSS General Psychopathology Subscale Score, Mean (S.D.)","[1]; Bifeprunox 5 mg, Endpoint LOCF",−4.4 (9.4)
same,"Change from Baseline in PANSS General Psychopathology Subscale Score, Median","[1]; Bifeprunox 5 mg, Endpoint LOCF",−5
same,"Trt Effect (versus placebo), PANSS General Psychopathology Subscale Score","[1]; Bifeprunox 5 mg, Endpoint LOCF",−2.2
same,"Change from Baseline in PANSS General Psychopathology Subscale Score, Mean (S.D.)","[1]; Bifeprunox 5 mg, Week 1, LOCF",−1.7 (7.6)
same,"Change from Baseline in PANSS General Psychopathology Subscale Score, Median","[1]; Bifeprunox 5 mg, Week 1, LOCF",−2
same,"Change from Baseline in PANSS General Psychopathology Subscale Score, Mean (S.D.)","[1]; Bifeprunox 5 mg, Week 2, LOCF",−2.8 (8.1)
same,"Change from Baseline in PANSS General Psychopathology Subscale Score, Median","[1]; Bifeprunox 5 mg, Week 2, LOCF",−2
same,"Change from Baseline in PANSS General Psychopathology Subscale Score, Mean (S.D.)","[1]; Bifeprunox 5 mg, Week 3, LOCF",−3.3 (8.8)
same,"Change from Baseline in PANSS General Psychopathology Subscale Score, Median","[1]; Bifeprunox 5 mg, Week 3, LOCF",−3
same,"Change from Baseline in PANSS General Psychopathology Subscale Score, Mean (S.D.)","[1]; Bifeprunox 5 mg, Week 4, LOCF",−3.7 (9.1)
same,"Change from Baseline in PANSS General Psychopathology Subscale Score, Median","[1]; Bifeprunox 5 mg, Week 4, LOCF",−4
same,"Change from Baseline in PANSS General Psychopathology Subscale Score, Mean (S.D.)",[1]; [4],−2.0 (9.2)
same,"Change from Baseline in PANSS General Psychopathology Subscale Score, Median",[1]; [4],−1
same,"Trt Effect (versus placebo), PANSS General Psychopathology Subscale Score",[1]; [4],0.4
same,"Change from Baseline in PANSS General Psychopathology Subscale Score, Mean (S.D.)","[1]; Bifeprunox 10 mg, Week 1, LOCF",−0.9 (6.2)
same,"Change from Baseline in PANSS General Psychopathology Subscale Score, Median","[1]; Bifeprunox 10 mg, Week 1, LOCF",0
same,"Change from Baseline in PANSS General Psychopathology Subscale Score, Mean (S.D.)","[1]; Bifeprunox 10 mg, Week 2, LOCF",−1.5 (7.7)
same,"Change from Baseline in PANSS General Psychopathology Subscale Score, Median","[1]; Bifeprunox 10 mg, Week 2, LOCF",−2
same,"Change from Baseline in PANSS General Psychopathology Subscale Score, Mean (S.D.)","[1]; Bifeprunox 10 mg, Week 3, LOCF",−1.7 (9.0)
same,"Change from Baseline in PANSS General Psychopathology Subscale Score, Median","[1]; Bifeprunox 10 mg, Week 3, LOCF",−1
same,"Change from Baseline in PANSS General Psychopathology Subscale Score, Mean (S.D.)","[1]; Bifeprunox 10 mg, Week 4, LOCF",−1.4 (8.8)
same,"Change from Baseline in PANSS General Psychopathology Subscale Score, Median","[1]; Bifeprunox 10 mg, Week 4, LOCF",−1
same,"Change from Baseline in PANSS General Psychopathology Subscale Score, Mean (S.D.)",[1]; [5],−5.1 (8.8)
same,"Change from Baseline in PANSS General Psychopathology Subscale Score, Median",[1]; [5],−5
same,"Trt Effect (versus placebo), PANSS General Psychopathology Subscale Score",[1]; [5],−2.8
same,"Change from Baseline in PANSS General Psychopathology Subscale Score, Mean (S.D.)","[1]; Bifeprunox 20 mg, Week 1, LOCF",−3.0 (6.4)
same,"Change from Baseline in PANSS General Psychopathology Subscale Score, Median","[1]; Bifeprunox 20 mg, Week 1, LOCF",−2
same,"Change from Baseline in PANSS General Psychopathology Subscale Score, Mean (S.D.)","[1]; Bifeprunox 20 mg, Week 2, LOCF",−4.4 (7.5)
same,"Change from Baseline in PANSS General Psychopathology Subscale Score, Median","[1]; Bifeprunox 20 mg, Week 2, LOCF",−5
same,"Change from Baseline in PANSS General Psychopathology Subscale Score, Mean (S.D.)","[1]; Bifeprunox 20 mg, Week 3, LOCF",−5.2 (7.9)
same,"Change from Baseline in PANSS General Psychopathology Subscale Score, Median","[1]; Bifeprunox 20 mg, Week 3, LOCF",−6
same,"Change from Baseline in PANSS General Psychopathology Subscale Score, Mean (S.D.)","[1]; Bifeprunox 20 mg, Week 4, LOCF",−5.2 (8.4)
same,"Change from Baseline in PANSS General Psychopathology Subscale Score, Median","[1]; Bifeprunox 20 mg, Week 4, LOCF",−6
same,"PANSS general psychopathology score, estimate of the treatment effect","[1]; bifeprunox 5 mg, LOCF",−2.2
same,"PANSS general psychopathology score, estimate of the treatment effect","[1]; bifeprunox 10 mg, LOCF",0.4
same,"PANSS general psychopathology score, estimate of the treatment effect","[1]; bifeprunox 20 mg, LOCF",−2.8
same,"BPRS psychosis cluster score, treatment effect (bifeprunox—placebo)","[2]; Bifeprunox 5 mg, Endpoint LOCF",−0.9
same,"Change from Baseline in BPRS Psychosis Cluster Score, Mean (S.D.)","[2]; Bifeprunox 5 mg, Endpoint LOCF",2.5 (3.8)
same,"Change from Baseline in BPRS Psychosis Cluster Score, Median","[2]; Bifeprunox 5 mg, Endpoint LOCF",−3
same,"Change from Baseline in BPRS Psychosis Cluster Score, Trt Effect (bifeprunox—placebo)","[2]; Bifeprunox 5 mg, Endpoint LOCF",−0.9
same,"Change from Baseline in BPRS Psychosis Cluster Score, Mean (S.D.)","[2]; Bifeprunox 5 mg, Week 1, LOCF",−1.0 (2.6)
same,"Change from Baseline in BPRS Psychosis Cluster Score, Median","[2]; Bifeprunox 5 mg, Week 1, LOCF",−1
same,"Change from Baseline in BPRS Psychosis Cluster Score, Mean S.D.","[2]; Bifeprunox 5 mg, Week 2, LOCF",−1.8 (3.3)
same,"Change from Baseline in BPRS Psychosis Cluster Score, Median","[2]; Bifeprunox 5 mg, Week 2, LOCF",−2
same,"Change from Baseline in BPRS Psychosis Cluster Score, Mean (S.D.)","[2]; Bifeprunox 5 mg, Week 3, LOCF",−2.2 (3.6)
same,"Change from Baseline in BPRS Psychosis Cluster Score, Median","[2]; Bifeprunox 5 mg, Week 3, LOCF",−2
same,"Change from Baseline in BPRS Psychosis Cluster Score, Mean (S.D.)","[2]; Bifeprunox 5 mg, Week 4, LOCF",−24 (3.8)
same,"Change from Baseline in BPRS Psychosis Cluster Score, Median","[2]; Bifeprunox 5 mg, Week 4, LOCF",−3
same,"BPRS psychosis cluster score, treatment effect (bifeprunox—placebo)",[2]; [4],0.4
same,"Change from Baseline in BPRS Psychosis Cluster Score, Mean (S.D.)",[2]; [4],−1.2 (4.6)
same,"Change from Baseline in BPRS Psychosis Cluster Score, Median",[2]; [4],0
same,"Change from Baseline in BPRS Psychosis Cluster Score, Trt Effect (bifeprunox—placebo)",[2]; [4],0.4
same,"Change from Baseline in BPRS Psychosis Cluster Score, Mean (S.D.)","[2]; Bifeprunox 10 mg, Week 1, LOCF",−0.7 (3.0)
same,"Change from Baseline in BPRS Psychosis Cluster Score, Median","[2]; Bifeprunox 10 mg, Week 1, LOCF",−1
same,"Change from Baseline in BPRS Psychosis Cluster Score, Mean S.D.","[2]; Bifeprunox 10 mg, Week 2, LOCF",−1.1 (3.7)
same,"Change from Baseline in BPRS Psychosis Cluster Score, Median","[2]; Bifeprunox 10 mg, Week 2, LOCF",−1
same,"Change from Baseline in BPRS Psychosis Cluster Score, Mean (S.D.)","[2]; Bifeprunox 10 mg, Week 3, LOCF",−1.1 (4.2)
same,"Change from Baseline in BPRS Psychosis Cluster Score, Median","[2]; Bifeprunox 10 mg, Week 3, LOCF",−1
same,"Change from Baseline in BPRS Psychosis Cluster Score, Mean (S.D.)","[2]; Bifeprunox 10 mg, Week 4, LOCF",−1.1 (4.3)
same,"Change from Baseline in BPRS Psychosis Cluster Score, Median","[2]; Bifeprunox 10 mg, Week 4, LOCF",−1
same,"Change from Baseline in BPRS Psychosis Cluster Score, Mean (S.D.)",[2]; [5],−2.7 (3.9)
same,"Change from Baseline in BPRS Psychosis Cluster Score, Median",[2]; [5],−3
same,"Change from Baseline in BPRS Psychosis Cluster Score, Trt Effect (bifeprunox—placebo)",[2]; [5],−1.1
same,"Change from Baseline in BPRS Psychosis Cluster Score, Mean (S.D.)","[2]; Bifeprunox 20 mg, Week 1, LOCF",−1.5 (2.6)
same,"Change from Baseline in BPRS Psychosis Cluster Score, Median","[2]; Bifeprunox 20 mg, Week 1, LOCF",−1
same,"Change from Baseline in BPRS Psychosis Cluster Score, Median","[2]; Bifeprunox 20 mg, Week 2, LOCF",−2
same,"Change from Baseline in BPRS Psychosis Cluster Score, Mean (S.D.)","[2]; Bifeprunox 20 mg, Week 3, LOCF",−2.7 (3.5)
same,"Change from Baseline in BPRS Psychosis Cluster Score, Median","[2]; Bifeprunox 20 mg, Week 3, LOCF",−3
same,"Change from Baseline in BPRS Psychosis Cluster Score, Mean (S.D.)","[2]; Bifeprunox 20 mg, Week 4, LOCF",−2.8 (3.7)
same,"Change from Baseline in BPRS Psychosis Cluster Score, Median","[2]; Bifeprunox 20 mg, Week 4, LOCF",−3
same,"BPRS psychosis cluster score, treatment effect (bifeprunox—placebo)","[2]; bifeprunox 20 mg, Endpoint LOCF",−1.1
same,"CGI severity of illness score, treatment effect (bifeprunox—placebo)","[3]; Bifeprunox 5 mg, Endpoint LOCF",−0.31
same,"Change from Baseline in CGI Severity of Illness Score, Mean (S.D.)",[3]; [6],−0.58 (1.10)
same,"Change from Baseline in CGI Severity of Illness Score, Median",[3]; [6],0.0
same,"Change from Baseline in CGI Severity of Illness Score, Trt Effect (bifeprunox—placebo)",[3]; [6],−0.31
same,"Change from Baseline in CGI Severity of Illness Score, Mean (S.D.)",[3]; [7],−0.18 (0.68)
same,"Change from Baseline in CGI Severity of Illness Score, Median",[3]; [7],0.0
same,"Change from Baseline in CGI Severity of Illness Score, Mean (S.D.)",[3]; [8],−0.37 (0.83)
same,"Change from Baseline in CGI Severity of Illness Score, Median",[3]; [8],0.0
same,"Change from Baseline in CGI Severity of Illness Score, Mean (S.D.)",[3]; [9],−0.47 (0.90)
same,"Change from Baseline in CGI Severity of Illness Score, Median",[3]; [9],0.0
same,"Change from Baseline in CGI Severity of Illness Score, Mean (S.D.)",[3]; [10],−0.52 (1.01)
same,"Change from Baseline in CGI Severity of Illness Score, Median",[3]; [10],0.0
same,"CGI severity of illness score, treatment effect (bifeprunox—placebo)",[3]; [4],0.12
